# Earlier results as cited in patent US10471156B2, “Pharmaceutical composition comprising amorphous lenalidomide” (SYNTHON B.V., priority 2014, dated 2019).
Compound,aqueous solubility (water),solubility in water
2-hydroxypropyl-β-cyclodextrin,exceeding 600 mg/ml,
"Nc1cccc2c1CN(C1CCC(=O)NC1=O)C2=O (racemic) [Lenalidomide, (RS)-3-(4-Amino-1-oxo 1,3-dihydro-2H-isoindol-2-yl)piperidine-2,6-dione]",,slightly soluble
